“And” between values parts separate entries of the source, which are not always exact repeats. Equal values may be shown once.
Assays:
[1] = male, Sprague Dawley, rat, in vivo, po, 352 mg/kg
Method: (§1) Blood samples were centrifuged at 3500 rpm for 5 min at 4°C. All plasma samples were then stored at -80°C until analysis.
(§2) All samples were stored in a refrigerator at -80°C and thawed at room temperature before processing. A 50 μL aliquot of plasma was added with 5 μL of the standard solution (or acetonitrile) and 100 μL of internal standard solution in turn, vortexed and mixed, then sonicated for 3 min, centrifuged at 14000 rpm for 10 min at low temperature. The supernatant was transferred to an autosampler vial and analyzed by UHPLC-ESI-MS/MS.
(§3) The mobile phase consisted of 0.1% formic acid solution (A) and acetonitrile (B).
(§4) The ESI ionization source was used and detected in MRM mode.
(§5) All data were presented as mean ± SD. Pharmacokinetic parameters including half-life (t1/2), maximum plasma time (Tmax) and concentration (Cmax), area under concentration-time curve (AUC0-t and AUC0-∞), clearance (CL), steady-state volume of distribution (Vz), and mean residence time (MRT) were analyzed by non-compartmental method using DAS Version 2.0 (Chinese Pharmacological Society, Beijing, China). […] The data were analyzed by Student’s t-test for two groups and one-way analysis of variance for multiple groups; p < 0.05 was considered statistically significant.

[2] = Stability of the five compounds in SD rat plasma (QC samples, UHPLC-ESI-MS/MS); format: in vitro ADME; conditions: for stability, Accuracy (measured versus nominal concentration) / stability, mean ± SD (measured concentration): SD rat plasma, n=5
Method: The method was validated according to the US Food and Drug Administration (FDA) Bioanalytical Method Validation Guidance as follows: [1] specificity was assessed by analyzing blank plasma, blank plasma spiked with standard solutions and rat plasma samples after oral administration. Each calibration curve was plotted using the concentration of the standard solution as the horizontal coordinate and the ratio of analyte to internal standard peak area as the vertical coordinate. The lower limit of quantification (LLOQ) refers to the lowest concentration, which is typically 10 times the signal-to-noise ratio. It has an acceptable accuracy of ± 20% and a precision of less than 20% [3]. Quality Control (QC) samples (low, medium and high concentrations) were prepared for each analyte. Five samples were analyzed at each concentration level and three consecutive batches were determined to calculate the accuracy and precision of the method. Extraction recovery was assessed by the ratio of the average peak area of routinely prepared QC samples (low, medium, and high concentrations) to the post-extraction plasma sample. Likewise, matrix effect was assessed by the ratio of peak areas between post-extraction samples spiked with analytes and mobile phases spiked with the same concentration of analytes.

in vivo = conditions: male, Sprague Dawley, rat, po, 352 mg/kg
Method: as §1, §2, §3, §4, §5

[3] = nominal 20 ng/mL, 3 freeze-thaw cycles
[4] = nominal 20 ng/mL, 7 days at -80°C
[5] = nominal 20 ng/mL, Room temperature 24h
[6] = nominal 1000 ng/mL, 3 freeze-thaw cycles
[7] = nominal 1000 ng/mL, 7 days at -80°C
[8] = nominal 1000 ng/mL, Room temperature 24h
[9] = nominal 5000 ng/mL, 3 freeze-thaw cycles
[10] = nominal 5000 ng/mL, 7 days at -80°C
[11] = nominal 5000 ng/mL, Room temperature 24h

In the case of `C=C1CC[C@@H]2[C@H]3[C@@H](CC[C@H]2C)[C@@H](C)C(=O)O[C@H]13` [ARTI, Arteannuin I], the CL [1] is reported as 0.016 ± 0.006 L/h, the Vz [1] is reported as 0.114 ± 0.041 L and the “Stability in plasma, measured concentration (mean ± SD)” value (from here on “Stability in plasma … (mean ± SD)”) ([2]; 3 freeze-thaw cycles, QC concentration 20 ng/mL) is reported as 21.0 ± 1.74 ng/mL and 21.0437 ng/mL. For the same compound, the “Stability in plasma … (mean ± SD)” value ([2]; 3 freeze-thaw cycles, QC concentration 1000 ng/mL) was 942 ± 21.5 ng/mL and 941.9 ng/mL, the “Stability in plasma … (mean ± SD)” value ([2]; 3 freeze-thaw cycles, QC concentration 5000 ng/mL) was 4532 ± 63.0 ng/mL and 4531.84 ng/mL and the “Stability in plasma … (mean ± SD)” value ([2]; 7 days at -80°C, QC concentration 20 ng/mL) was 20.6 ± 1.03 ng/mL and 20.6026 ng/mL. The “Stability in plasma … (mean ± SD)” value ([2]; 7 days at -80°C, QC concentration 1000 ng/mL) was 920 ± 31.6 ng/mL and 920.324 ng/mL, the “Stability in plasma … (mean ± SD)” value ([2]; 7 days at -80°C, QC concentration 5000 ng/mL) was 4563 ± 143 ng/mL and 4562.63 ng/mL and the “Stability, measured concentration, mean ± SD” value ([2]; QC sample 20 ng/mL, 3 freeze-thaw cycles) was 21.0 ± 1.74 ng/mL. For the same compound, the “Stability, measured concentration, mean ± SD” value ([2]; QC sample 20 ng/mL, 7 days at -80°C) was 20.6 ± 1.03 ng/mL, the “Stability, measured concentration, mean ± SD” value ([2]; QC sample 20 ng/mL, Room temperature 24h) was 21.1 ± 0.78 ng/mL and the “Stability, measured concentration, mean ± SD” value ([2]; QC sample 1000 ng/mL, 3 freeze-thaw cycles) was 942 ± 21.5 ng/mL. The “Stability, measured concentration, mean ± SD” value ([2]; QC sample 1000 ng/mL, 7 days at -80°C) was 920 ± 31.6 ng/mL, the “Stability, measured concentration, mean ± SD” value ([2]; QC sample 1000 ng/mL, Room temperature 24h) was 1003 ± 39.5 ng/mL and the “Stability, measured concentration, mean ± SD” value ([2]; QC sample 5000 ng/mL, 3 freeze-thaw cycles) was 4532 ± 63.0 ng/mL. For the same compound, the “Stability, measured concentration, mean ± SD” value ([2]; QC sample 5000 ng/mL, 7 days at -80°C) was 4563 ± 143 ng/mL, the “Stability, measured concentration, mean ± SD” value ([2]; QC sample 5000 ng/mL, Room temperature 24h) was 4765 ± 218 ng/mL and the “Stability in plasma … (mean ± SD)” value ([2]; Room temperature 24h, QC concentration 20 ng/mL) was 21.1 ± 0.78 ng/mL and 21.1244 ng/mL. The “Stability in plasma … (mean ± SD)” value ([2]; Room temperature 24h, QC concentration 1000 ng/mL) was 1002.91 ng/mL and 1003 ± 39.5 ng/mL, the “Stability in plasma … (mean ± SD)” value ([2]; Room temperature 24h, QC concentration 5000 ng/mL) was 4764.7 ng/mL and 4765 ± 218 ng/mL and the “stability, Accuracy (measured versus nominal concentration)” value [2, 3] was 105.22%. The “stability, mean ± SD (measured concentration)” value (“stability, mean ± SD” below) [2, 3] was 21.0 ± 1.74 ng/mL, the “stability, Accuracy (measured versus nominal concentration)” value [2, 4] was 103.01% and the “stability, mean ± SD” value [2, 4] was 20.6 ± 1.03 ng/mL. For the same compound, the “stability, Accuracy (measured versus nominal concentration)” value [2, 5] was 105.62%, the “stability, mean ± SD” value [2, 5] was 21.1 ± 0.78 ng/mL and the “stability, Accuracy (measured versus nominal concentration)” value [2, 6] was 94.19%. For the same compound, the “stability, mean ± SD” value [2, 6] was 942 ± 21.5 ng/mL, the “stability, Accuracy (measured versus nominal concentration)” value [2, 7] was 92.03% and the “stability, mean ± SD” value [2, 7] was 920 ± 31.6 ng/mL. The “stability, Accuracy (measured versus nominal concentration)” value [2, 8] was 100.29%, the “stability, mean ± SD” value [2, 8] was 1003 ± 39.5 ng/mL and the “stability, Accuracy (measured versus nominal concentration)” value [2, 9] was 90.64%. For the same compound, the “stability, mean ± SD” value [2, 9] was 4532 ± 63.0 ng/mL, the “stability, Accuracy (measured versus nominal concentration)” value [2, 10] was 91.25% and the “stability, mean ± SD” value [2, 10] was 4563 ± 143 ng/mL. For the same compound, the “stability, Accuracy (measured versus nominal concentration)” value [2, 11] was 95.29%, the “stability, mean ± SD” value [2, 11] was 4765 ± 218 ng/mL and the AUC(0-inf) (in vivo) was 1390 ± 586 ng·h/mL. The AUC(0-t) (in vivo) was 990 ± 284 ng·h/mL, the Cmax (in vivo; Cmax) was 222 ± 46.4 ng/mL and the MRT last (in vivo; MRT(0-t)) was 4.34 ± 0.957 h. For the same compound, the half-life (in vivo; t1/2) was 5.14 ± 1.8 h.

— paper PMC12058161, “The plant matrix of Artemisia annua L. for the treatment of malaria: Pharmacodynamic and pharmacokinetic studies” (PLOS One, 2025)
